Each structure is given as a SMILES string.

Common to all, as to assay: MIC, two-fold agar dilution, clinical isolate
Assay type in all cases: cell-based
Background: In agar dilution, organisms are placed on agar that contains the substance at set levels.

The subject of one experiment is E.coli 020028. The conditions noted are these: Escherichia coli, single drug, average of three tests. In a few lines: (§1)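 Each value is the mean MIC from three agar dilution runs in Mueller-Hinton medium (pH 7.2-7.4), covering the compound alone and paired with MBL inhibitors. Strains were inoculated as direct suspensions and grown 16-20 hours at 37° C.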
The test system of a further experiment is E.coli 020031. The conditions noted are these: Escherichia coli, single drug, average of three tests. In outline: as §1
A further experiment relates to E.coli 020033. Conditions: Escherichia coli, single drug, average of three tests. In a few lines: as §1
For a further experiment, the system named is E.coli 115103. Conditions: Escherichia coli; E.coli 115103; single drug; average of three tests; read-out: MIC. In outline: as §1
The subject of a further experiment is E.coli BAA-2452. Conditions: Escherichia coli, BAA2452. In a few lines: as §1
In the next experiment the test system is E.coli C1569. The conditions noted are these: Escherichia coli, single drug, average of three tests. In a few lines:
as §1

A further experiment relates to E.coli CRE18. Conditions: Escherichia coli; E.coli CRE18; single drug; average of three tests; read-out: MIC. In a few lines: as §1
A further experiment relates to E.coli CRE21. Conditions: Escherichia coli; E.coli CRE21; single drug; average of three tests; read-out: MIC. In outline: as §1
The next experiment concerns E.coli CRE23. Conditions: Escherichia coli; E.coli CRE23; single drug; average of three tests; read-out: MIC. In outline:
as §1

Another experiment concerns E.coli CRE28. The conditions noted are these: Escherichia coli; E.coli CRE28; single drug; average of three tests; read-out: MIC. In outline:
as §1

The subject of a further experiment is K.p 090339. In outline:
as §1

A further experiment deals with K.p 115004. In a few lines:
as §1

The next experiment concerns K.p 11544. Conditions: K.p 11544; single drug; average of three tests; read-out: MIC. In outline: as §1
The next experiment deals with K.p 13249. Conditions: K.p 13249; single drug; average of three tests; read-out: MIC. In outline:
as §1

In a further experiment the test system is K.p 6777. In a few lines:
as §1

The next experiment relates to K.p BAA-2470. In outline:
as §1

In a further experiment the test system is K.p C904. In outline: as §1
In another experiment the test system is K.p CRE12. Conditions: single drug, average of three tests. In a few lines: as §1
The test system of a further experiment is K.p CRE16. The conditions noted are these: single drug, average of three tests. In a few lines:
as §1

Another experiment relates to K.p HX37. The conditions noted are these: K.p HX37; single drug; average of three tests; read-out: MIC. In a few lines: as §1
Another experiment concerns K.p HX77. The conditions noted are these: single drug, average of three tests. In a few lines:
as §1

Experiment [1] has as its system Morganella morganii C1274. The conditions noted are these: Morganella morganii, C1274. In outline:
as §1

As usually defined, the MIC is the lowest concentration that inhibits growth of the organism. Turning to `NC[C@@H]1CN(C[C@@H]2[C@H](NC(=O)/C(=N\OC3(C(=O)O)CC3)c3csc(N)n3)C(=O)N2S(=O)(=O)O)S(=O)(=O)N1` [Compound 4], the minimal inhibitory concentration (MIC) was determined as 0.03 µg/mL with E.coli 020028; 0.5 µg/mL in the experiment on E.coli 020031; 1 µg/mL with E.coli 020033; 1 µg/mL in the experiment on E.coli 115103; 0.125 µg/mL in the experiment on E.coli BAA-2452; 1 µg/mL in the experiment with E.coli C1569. In addition, the minimal inhibitory concentration (MIC) amounted to 1 µg/mL in the experiment on E.coli CRE18; 1 µg/mL in the experiment with E.coli CRE21; 1 µg/mL in the experiment with E.coli CRE23; 1 µg/mL with E.coli CRE28; 0.125 µg/mL in the experiment with K.p 090339; 0.125 µg/mL in the experiment with K.p 115004. The MIC in the experiment on K.p 11544 worked out at 0.06 µg/mL; in the experiment on K.p 13249, 0.06 µg/mL; with K.p 6777, 0.125 µg/mL; with K.p BAA-2470 it was 0.125 µg/mL; with K.p C904 it was 0.125 µg/mL; in the experiment with K.p CRE12, 0.06 µg/mL. The minimum inhibitory concentration (MIC) worked out at 0.06 µg/mL with K.p CRE16, 0.25 µg/mL in the experiment on K.p HX37, 0.03 µg/mL in the experiment on K.p HX77 and 0.125 µg/mL in experiment [1].

The values are drawn from patent publication US12516049B2, “Sulfonylurea ring substituted monocyclic β-lactam antibiotics” (priority 2019, dated 2026).
